Values quoted from earlier work as cited in publication PMC11839890 (European Journal of Nuclear Medicine and Molecular Imaging, 2024).

Tests used:
A431-CCK2R cells = conditions: cited from earlier work
A431-CCK2R xenografts = conditions: in vivo; cited from earlier work

[^177Lu]Lu-DOTA-PP-F11N: 177Lu-labelled DOTA-(DGlu)6-Ala-Tyr-Gly-Trp-Nle-Asp-Phe-NH2 (AYGW; 177Lu-DOTA-(DGlu)6, Nle-Asp-Phe-NH2; printed: Ala-Tyr-Gly-Trp-)
Bmax (A431-CCK2R cells; A431-CCK2R cells, nM printed only with the first value of the sentence): 0.54 ± 0.10 nM
Kd (A431-CCK2R cells; same cell line (A431-CCK2R), nM printed only with the PP-F11N value): 50 ± 7.3 nM
tumour uptake (A431-CCK2R xenografts): ~ 7 %ID/g
